The results in this text go back to patent publication US20220324835A1 (Nurix Therapeutics, Inc., priority 2018, published 2022).

The test system of one experiment is T-cells. The experiment can be described thus: In vivo activity: CD25 expression on CD4+ or CD8+ T-cells of mice stimulated with anti-CD3 antibody. As to conditions: 2 μg anti-CD3 antibody, 24 hours. In short, it runs like this:
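C57BL/6 or BALB/c mice dosed with inhibitor (IV, IP, SC or PO, e.g. BID or TID), then stimulated with 2 μg anti-CD3 antibody. Plasma IL-2, IFNγ, TNFα at 8 h and CD25 on CD4+/CD8+ T-cells by flow cytometry at 24 h; fold change over vehicle plus anti-CD3, binned A–E.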

Another experiment has as its system T-cell. The experiment can be described thus: IL-2 secretion from T-cells stimulated with anti-CD3 antibody alone (Biological Example 2). It is filed as cell-based. As to conditions: primary human total T-cells, read-out: IL-2 secretion, Anti-CD3 stimulation, fold change over baseline; for fold induction at 1 µM: 1 μM compound; for fold induction at 8 µM: 8 μM compound.

On to `Cn1cnnc1CC1(c2cccc(N3Cc4c(cc(CN5CC[C@H](F)C5)cc4C(F)(F)F)C3=O)c2)COC1` [Compound 410, 6-{[(3S)-3-fluoropyrrolidin-1-yl]methyl}-2-(3-{3-[(4-methyl-4H-1,2,4-triazol-3-yl)methyl]oxetan-3-yl}phenyl)-4-(trifluoromethyl)-2,3-dihydro-1H-isoindol-1-one], for which, in the experiment with T-cells (90 mpk PO BID), the “CD4+ T-cell % CD25+” value is recorded as “D (D indicates 1.00-1.50)” and the “CD8+ T-cell % CD25+” value is “D (D indicates 1.00-1.50)”. Besides, in the experiment on T-cells (135 mpk PO BID), the “CD4+ T-cell % CD25+” value was “D (D indicates 1.00-1.50)” and the “CD8+ T-cell % CD25+” value is “D (D indicates 1.00-1.50)”. Further, in the experiment with T-cells (180 mpk PO BID), the “CD4+ T-cell % CD25+” value is “D (D indicates 1.00-1.50)” and the “CD8+ T-cell % CD25+” value is given as “D (D indicates 1.00-1.50)”. Moreover, in the experiment on T-cell, the fold induction at 1 µM is greater than 0.201 and the fold induction at 8 µM was greater than 0.201.
As to `C[C@@H](c1cc2c(c(C(F)(F)F)c1)CN(c1cccc(C3(Cc4nncn4C)COC3)c1)C2=O)N1CC[C@H](F)C1` [Compound 412, 6-((S)-1-((S)-3-fluoropyrrolidin-1-yl)ethyl)-2-(3-(3-((4-methyl-4H-1,2,4-triazol-3-yl)methyl)oxetan-3-yl)phenyl)-4-(trifluoromethyl)isoindolin-1-one], in the experiment on T-cells (90 mpk PO BID), the “CD4+ T-cell % CD25+” value was “D (D indicates 1.00-1.50)” and the “CD8+ T-cell % CD25+” value is “D (D indicates 1.00-1.50)”. Besides, in the experiment with T-cells (135 mpk PO BID), the “CD4+ T-cell % CD25+” value is on record as “C (C indicates 1.51-2.00)” and the “CD8+ T-cell % CD25+” value is reported as “D (D indicates 1.00-1.50)”. In addition, in the experiment with T-cells (180 mpk PO BID), the “CD4+ T-cell % CD25+” value was “B (B indicates 2.01-2.50)” and the “CD8+ T-cell % CD25+” value is on record as “D (D indicates 1.00-1.50)”. Also, in the experiment on T-cell, the fold induction at 1 µM was greater than 0.201 and the fold induction at 8 µM was greater than 0.201.
For the compound `C[C@H](c1cc2c(c(C(F)(F)F)c1)CN(c1cccc(C3(Cc4nncn4C)COC3)c1)C2=O)N1CC[C@H](F)C1` [Compound 413, 6-((R)-1-((S)-3-fluoropyrrolidin-1-yl)ethyl)-2-(3-(3-((4-methyl-4H-1,2,4-triazol-3-yl)methyl)oxetan-3-yl)phenyl)-4-(trifluoromethyl)isoindolin-1-one], in the experiment on T-cells (90 mpk PO BID), the “CD4+ T-cell % CD25+” value was “D (D indicates 1.00-1.50)” and the “CD8+ T-cell % CD25+” value is given as “D (D indicates 1.00-1.50)”. Further, in the experiment with T-cells (135 mpk PO BID), the “CD4+ T-cell % CD25+” value is given as “D (D indicates 1.00-1.50)” and the “CD8+ T-cell % CD25+” value is given as “D (D indicates 1.00-1.50)”. Also, in the experiment with T-cells (180 mpk PO BID), the “CD4+ T-cell % CD25+” value was “D (D indicates 1.00-1.50)” and the “CD8+ T-cell % CD25+” value was “D (D indicates 1.00-1.50)”. Moreover, in the experiment with T-cell, the fold induction at 1 µM is greater than 0.201 and the fold induction at 8 µM is greater than 0.201.
Regarding `Cn1cnnc1CC1(c2cccc(N3Cc4c(cc(CN5CC(F)C5)cc4C(F)(F)F)C3=O)c2)COC1` [Compound 415, 6-((3-fluoroazetidin-1-yl)methyl)-2-(3-(3-((4-methyl-4H-1,2,4-triazol-3-yl)methyl)oxetan-3-yl)phenyl)-4-(trifluoromethyl)isoindolin-1-one], in the experiment with T-cells (90 mpk PO BID), the “CD4+ T-cell % CD25+” value is “D (D indicates 1.00-1.50)” and the “CD8+ T-cell % CD25+” value is reported as “D (D indicates 1.00-1.50)”. Moreover, in the experiment with T-cells (135 mpk PO BID), the “CD4+ T-cell % CD25+” value is “D (D indicates 1.00-1.50)” and the “CD8+ T-cell % CD25+” value was “E (E indicates <1.00)”. In addition, in the experiment on T-cells (180 mpk PO BID), the “CD4+ T-cell % CD25+” value is on record as “D (D indicates 1.00-1.50)” and the “CD8+ T-cell % CD25+” value is on record as “E (E indicates <1.00)”. For the same compound, in the experiment on T-cell, the fold induction at 1 µM lay in the range of 0.151 to 0.2 and the fold induction at 8 µM was greater than 0.201.
Take `Cn1cnnc1CC1(c2cccc(N3Cc4c(cc(CN5CC[C@@H](C#N)C5)cc4C(F)(F)F)C3=O)c2)COC1` [Compound 421, (R)-1-((2-(3-(3-((4-methyl-4H-1,2,4-triazol-3-yl)methyl)oxetan-3-yl)phenyl)-3-oxo-7-(trifluoromethyl)isoindolin-5-yl)methyl)pyrrolidine-3-carbonitrile]: in the experiment with T-cells (90 mpk PO BID), the “CD4+ T-cell % CD25+” value was “E (E indicates <1.00)” and the “CD8+ T-cell % CD25+” value is on record as “E (E indicates <1.00)”. Also, in the experiment with T-cells (135 mpk PO BID), the “CD4+ T-cell % CD25+” value is reported as “E (E indicates <1.00)” and the “CD8+ T-cell % CD25+” value is on record as “E (E indicates <1.00)”. For the same compound, in the experiment on T-cells (180 mpk PO BID), the “CD4+ T-cell % CD25+” value was “E (E indicates <1.00)” and the “CD8+ T-cell % CD25+” value is recorded as “E (E indicates <1.00)”. Also, in the experiment on T-cell, the fold induction at 1 µM was 0.101 to 0.15 and the fold induction at 8 µM is greater than 0.201.
`Cn1cnnc1CC1(c2cccc(N3Cc4c(cc(CN5C[C@H]6C[C@H]6C5)cc4C(F)(F)F)C3=O)c2)COC1` [Compound 429, 6-(((1R,5S)-3-azabicyclo[3.1.0]hexan-3-yl)methyl)-2-(3-(3-((4-methyl-4H-1,2,4-triazol-3-yl)methyl)oxetan-3-yl)phenyl)-4-(trifluoromethyl)isoindolin-1-one]: in the experiment with T-cells (135 mpk PO BID), the “CD4+ T-cell % CD25+” value is “D (D indicates 1.00-1.50)” and the “CD8+ T-cell % CD25+” value is recorded as “D (D indicates 1.00-1.50)”. For the same compound, in the experiment with T-cell, the fold induction at 1 µM was greater than 0.201 and the fold induction at 8 µM was greater than 0.201.
`Cn1cnnc1CC1(c2cccc(N3Cc4c(cc(CN5CCC[C@H](F)C5)cc4C(F)(F)F)C3=O)c2)COC1` [Compound 432, 6-{[(3S)-3-fluoropiperidin-1-yl]methyl}-2-(3-{3-[(4-methyl-4H-1,2,4-triazol-3-yl)methyl]oxetan-3-yl}phenyl)-4-(trifluoromethyl)-2,3-dihydro-1H-isoindol-1-one]: in the experiment on T-cells (135 mpk PO BID), the “CD4+ T-cell % CD25+” value is recorded as “D (D indicates 1.00-1.50)” and the “CD8+ T-cell % CD25+” value is on record as “D (D indicates 1.00-1.50)”. Besides, the fold induction at 1 µM in the experiment on T-cell is greater than 0.201.
With `Cn1cnnc1C(F)(F)[C@](C)(F)c1cccc(N2Cc3c(cc(CN4CC[C@H](F)C4)cc3C(F)(F)F)C2=O)c1` [Compound 447, 6-(((S)-3-fluoropyrrolidin-1-yl)methyl)-2-(3-((R)-1,1,2-trifluoro-1-(4-methyl-4H-1,2,4-triazol-3-yl)propan-2-yl)phenyl)-4-(trifluoromethyl)isoindolin-1-one], in the experiment on T-cells (90 mpk PO BID), the “CD4+ T-cell % CD25+” value is “D (D indicates 1.00-1.50)” and the “CD8+ T-cell % CD25+” value was “E (E indicates <1.00)”. For the same compound, in the experiment on T-cells (135 mpk PO BID), the “CD4+ T-cell % CD25+” value is recorded as “D (D indicates 1.00-1.50)” and the “CD8+ T-cell % CD25+” value is recorded as “E (E indicates <1.00)”. In the experiment on T-cells (180 mpk PO BID), the “CD4+ T-cell % CD25+” value is given as “C (C indicates 1.51-2.00)” and the “CD8+ T-cell % CD25+” value was “D (D indicates 1.00-1.50)”. Also, in the experiment on T-cell, the fold induction at 1 µM is greater than 0.201 and the fold induction at 8 µM is greater than 0.201.
In the case of `Cn1cnnc1C(F)(F)[C@](C)(F)c1cccc(N2Cc3c(cc(CN4CCC(F)(F)C4)cc3C(F)(F)F)C2=O)c1` [Compound 448, (R)-6-((3,3-difluoropyrrolidin-1-yl)methyl)-2-(3-(1,1,2-trifluoro-1-(4-methyl-4H-1,2,4-triazol-3-yl)propan-2-yl)phenyl)-4-(trifluoromethyl)isoindolin-1-one], in the experiment with T-cells (90 mpk PO BID), the “CD4+ T-cell % CD25+” value is “D (D indicates 1.00-1.50)” and the “CD8+ T-cell % CD25+” value is listed as “E (E indicates <1.00)”. For the same compound, in the experiment with T-cells (135 mpk PO BID), the “CD4+ T-cell % CD25+” value is listed as “D (D indicates 1.00-1.50)” and the “CD8+ T-cell % CD25+” value is reported as “E (E indicates <1.00)”. In the experiment with T-cells (180 mpk PO BID), the “CD4+ T-cell % CD25+” value is reported as “D (D indicates 1.00-1.50)” and the “CD8+ T-cell % CD25+” value is “E (E indicates <1.00)”. Besides, in the experiment on T-cell, the fold induction at 1 µM was 0.101 to 0.15 and the fold induction at 8 µM was greater than 0.201.
In the case of `Cn1cnnc1CC1(c2cccc(N3Cc4c(cc(CN5CC6(CC6)C5)cc4C(F)(F)F)C3=O)c2)COC1` [Compound 487, 6-{5-azaspiro[2.3]hexan-5-ylmethyl}-2-(3-{3-[(4-methyl-1,2,4-triazol-3-yl)methyl]oxetan-3-yl}phenyl)-4-(trifluoromethyl)-3H-isoindol-1-one], in the experiment on T-cells (135 mpk PO BID), the “CD4+ T-cell % CD25+” value was “C (C indicates 1.51-2.00)” and the “CD8+ T-cell % CD25+” value is reported as “D (D indicates 1.00-1.50)”. In the experiment on T-cell, the fold induction at 1 µM was greater than 0.201.
On the same counts, the results for `Cn1cnnc1CC1(c2cccc(NC(=O)c3cc(CN4CC[C@H](F)C4)cc(C4CC4)n3)c2)COC1` [Compound 496, 6-cyclopropyl-4-{[(3S)-3-fluoropyrrolidin-1-yl]methyl}-N-(3-{3-[(4-methyl-1,2,4-triazol-3-yl)methyl]oxetan-3-yl}phenyl)pyridine-2-carboxamide] are “C (C indicates 1.51-2.00)”, “D (D indicates 1.00-1.50)” and greater than 0.201.
With `Cn1cnnc1CC1(c2cccc(NC(=O)c3cc(CN4CCC5(CC5)C4)cc(C4CC4)n3)c2)COC1` [Compound 519, 4-((5-azaspiro[2.4]heptan-5-yl)methyl)-6-cyclopropyl-N-(3-(3-((4-methyl-4H-1,2,4-triazol-3-yl)methyl)oxetan-3-yl)phenyl)picolinamide], the “CD4+ T-cell % CD25+” value in the experiment on T-cells (45 mpk PO BID) is recorded as “C (C indicates 1.51-2.00)”; in the experiment on T-cells (90 mpk PO BID), “A (A indicates >2.50)”; in the experiment with T-cells (180 mpk PO BID) it was “A (A indicates >2.50)”. Moreover, the “CD8+ T-cell % CD25+” value in the experiment with T-cells (45 mpk PO BID) was “D (D indicates 1.00-1.50)”; in the experiment on T-cells (90 mpk PO BID), “D (D indicates 1.00-1.50)”; in the experiment with T-cells (180 mpk PO BID), “C (C indicates 1.51-2.00)”. For the same compound, in the experiment with T-cell, the fold induction at 1 µM is greater than 0.201.
In the case of `Cn1cnnc1CC1(c2cccc(N3Cc4c(cc(CN5CCC6(CC6)C5)cc4C(F)(F)F)C3=O)c2)COC1` [Compound 520, 6-((5-azaspiro[2.4]heptan-5-yl)methyl)-2-(3-(3-((4-methyl-4H-1,2,4-triazol-3-yl)methyl)oxetan-3-yl)phenyl)-4-(trifluoromethyl)isoindolin-1-one], the “CD4+ T-cell % CD25+” value in the experiment on T-cells (45 mpk PO BID) is reported as “D (D indicates 1.00-1.50)”; with T-cells (90 mpk PO BID), “D (D indicates 1.00-1.50)”; in the experiment with T-cells (135 mpk PO BID), “C (C indicates 1.51-2.00)”; in the experiment on T-cells (180 mpk PO BID), “B (B indicates 2.01-2.50)”. Besides, the “CD8+ T-cell % CD25+” value in the experiment with T-cells (45 mpk PO BID), in the experiment with T-cells (90 mpk PO BID), with T-cells (135 mpk PO BID) and with T-cells (180 mpk PO BID) was “D (D indicates 1.00-1.50)” each time. Also, the fold induction at 1 µM in the experiment with T-cell was greater than 0.201.
